This passage reports IC50 results from patent US8207172B2 (Bayer Intellectual Property GmbH, priority 2004, dated 2012).

Counter-ions that a name gives are not always drawn.

The test system of assay [1] is A431 cells (human epidermoid carcinoma). The assay can be described thus: In vitro tumor cell proliferation assay (Cell Titer-Glo luminescent cell viability), A431. Type of assay: cell-based. The settings on record: A-431, 72 h, 72 hours of drug exposure, ATP luminescence readout, read-out: IC50, anti-proliferative activity (inhibition of cell proliferation). Summed up:
(§1)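 Seeding density 2.5×10^3 cells/well; 72 h drug exposure at 37° C; endpoint CellTiter-Glo luminescence, reported as IC50.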
(In general: In ATP-based viability assays light output follows the ATP content of the culture.)

The test system of assay [2] is BT474 (human breast carcinoma). The assay can be described thus: In vitro tumor cell proliferation assay (Cell Titer-Glo luminescent cell viability), BT474. Type of assay: cell-based. The note with it: BT-474, 72 h, BT474 cells, 72 hours of drug exposure, ATP luminescence readout, read-out: IC50, anti-proliferative activity (inhibition of cell proliferation). Summed up: as §1

With `COCCNC[C@@H](O)Cn1ncc2c1CCc1c-2sc2ncnc(Nc3ccc(OCc4cccc(F)c4)c(Cl)c3)c12` [Example 173, (2R)-1-[6-({3-chloro-4-[(3-fluorobenzyl)oxy]phenyl}amino)-4,5-dihydro-3H-pyrimido[5′,4′:4,5]thieno[2,3-e]indazol-3-yl]-3-[(2-methoxyethyl)amino]propan-2-ol trifluoroacetate (salt)], the IC50 is at most 5 µM in assay [1] and at most 1 µM in assay [2].
For the compound `CCOC(=O)Cn1cc2c(n1)CCc1c-2sc2ncnc(Nc3ccc(OCc4cccc(F)c4)c(Cl)c3)c12` [Example 174], the values for the IC50 in assay [1] and in assay [2] were at most 50 µM and at most 1 µM, respectively.
`O=C(O)Cn1cc2c(n1)CCc1c-2sc2ncnc(Nc3ccc(OCc4cccc(F)c4)c(Cl)c3)c12` [Example 175, [6-({3-chloro-4-[(3-fluorobenzyl)oxy]phenyl}amino)-4,5-dihydro-2H-pyrimido[5′,4′:4,5]thieno[2,3-e]indazol-2-yl]acetic acid]: the IC50 was at most 50 µM in assay [1] and at most 5 µM in assay [2].
For the compound `Fc1cccc(COc2ccc(Nc3ncnc4sc5c(c34)CCc3nn(CCN4CCNCC4)cc3-5)cc2Cl)c1` [Example 176, N-{3-chloro-4-[(3-fluorobenzyl)oxy]phenyl}-2-(2-piperazin-1-ylethyl)-4,5-dihydro-2H-pyrimido[5′,4′:4,5]thieno[2,3-e]indazol-6-amine], the values for the IC50 in assay [1] and in assay [2] were at most 5 µM and at most 1 µM, respectively.
Take `CN(C)[C@H]1CCN(C(=O)Cn2cc3c(n2)CCc2c-3sc3ncnc(Nc4ccc(OCc5cccc(F)c5)c(Cl)c4)c23)C1` [Example 177, N-{3-chloro-4-[(3-fluorobenzyl)oxy]phenyl}-2-{2-[(3S)-3-(dimethylamino)pyrrolidin-1-yl]-2-oxoethyl}-4,5-dihydro-2H-pyrimido[5′,4′:4,5]thieno[2,3-e]indazol-6-amine]: the IC50 in assay [1] is at most 5 µM; in assay [2], at most 1 µM.
With `O=C(Cn1cc2c(n1)CCc1c-2sc2ncnc(Nc3ccc(OCc4cccc(F)c4)c(Cl)c3)c12)NCCO` [Example 178, 2-[6-({3-chloro-4-[(3-fluorobenzyl)oxy]phenyl}amino)-4,5-dihydro-2H-pyrimido[5′,4′:4,5]thieno[2,3-e]indazol-2-yl]-N-(2-hydroxyethyl)acetamide], the IC50 in assay [1] is at most 50 µM; in assay [2], at most 1 µM.
Consider `O=C(Cn1cc2c(n1)CCc1c-2sc2ncnc(Nc3ccc(OCc4cccc(F)c4)c(Cl)c3)c12)N1CCOCC1` [Example 179, N-{3-chloro-4-[(3-fluorobenzyl)oxy]phenyl}-2-(2-morpholin-4-yl-2-oxoethyl)-4,5-dihydro-2H-pyrimido[5′,4′:4,5]thieno[2,3-e]indazol-6-amine], for which the IC50 in assay [1] is at most 5 µM; in assay [2], at most 1 µM.
Regarding `CS(=O)(=O)CCNC(=O)Cn1cc2c(n1)CCc1c-2sc2ncnc(Nc3ccc(OCc4cccc(F)c4)c(Cl)c3)c12` [Example 180, 2-[6-({3-chloro-4-[(3-fluorobenzyl)oxy]phenyl}amino)-4,5-dihydro-2H-pyrimido[5′,4′:4,5]thieno[2,3-e]indazol-2-yl]-N-[2-(methylsulfonyl)ethyl]acetamide], the IC50 in assay [1] was at most 50 µM; in assay [2], at most 1 µM.
`CN(C)[C@@H]1CCN(C(=O)Cn2cc3c(n2)CCc2c-3sc3ncnc(Nc4ccc(OCc5cccc(F)c5)c(Cl)c4)c23)C1` [Example 181, N-{3-chloro-4-[(3-fluorobenzyl)oxy]phenyl}-2-{2-[3-(dimethylamino)pyrrolidin-1-yl]-2-oxoethyl}-4,5-dihydro-2H-pyrimido[5′,4′:4,5]thieno[2,3-e]indazol-6-amine]: the IC50 in assay [1] is at most 5 µM; in assay [2] it was at most 1 µM.
Regarding `CN1CCN(C(=O)Cn2cc3c(n2)CCc2c-3sc3ncnc(Nc4ccc5c(cnn5Cc5cccc(F)c5)c4)c23)CC1` [Example 182, N-[1-(3-fluorobenzyl)-1H-indazol-5-yl]-2-[2-(4-methylpiperazin-1-yl)-2-oxoethyl]-4,5-dihydro-2H-pyrimido[5′,4′:4,5]thieno[2,3-e]indazol-6-amine], the IC50 is at most 5 µM in assay [1] and at most 1 µM in assay [2].
